The values below come from patent US20060039955A1, “Animal feed compositions with enhanced histidine content” (Cargill, Incorporated, priority 2004, published 2006).

On the set-up of data set [1]: species or system cows. To be noted: cow, in vivo. The protocol:
Free Amino Acid degradation in vivo was determined using a technique that used cobalt (CoII) as a ruminal flow marker to follow the flow of Maillard-protected histidine (which had been reacted with lactose) out of the rumen. Maillard-protected histidine loss was evaluated relative to CoII outflow in fistulated cows. Free histidine or histidine modified by the Maillard Reaction Protocol were introduced into fistulated cows together with Cobalt II. After introducing the histidine or modified histidine into the cows, samples of rumen fluid periodically were withdrawn and the amount of histidine was determined using an O-phthaldialdehyde assay as described by Roth (1971), Anal. Chem. 43:880. The amount of CoII was determined using inductively coupled plasma emission spectroscopy. The amount of histidine related to CoII was plotted versus time to calculate a degradation coefficient (Kd) for free and protected histidine.

The nature of data set [2]: Poultry digestibility trial (intestinal digestibility of His and Lys sources). The data set is classed as in vivo. As to the method: This trial tested four different sources of AA for their intestinal digestibility. Crystalline His and Lys were coated with partially hydrogenated vegetable oil to test their digestibility as compared to His(HCl) and Lys(HCl), respectively. His(HCl) contains 74.3 wt. % His, whereas, the coated product contains 40 wt. % His. Lys(HCl) contains 78.8 wt. % Lys, whereas, the coated product contains 45 wt. % Lys. For this trial the test articles were added at low levels. The control diet was used as a blank to measure endogenous losses and to calculate the digestibility of His and Lys. The control diet was spiked with His or Lys by using either His(HCl) or Lys(HCl), respectively, (0.50% inclusion rate). This provided His and Lys at 0.372% and 0.394%, respectively. The coated His and Lys products were added to provide the same level of His or Lys as provided by the His(HCl) or Lys(HCl), respectively. The digestibility of His and Lys in the casein was determined and this effect was assessed in calculating the digestibility of the coated His and coated Lys. All test diets contained the same amount of casein (the only other source of His and Lys) as the control diet.

As for `N[C@@H](Cc1c[nH]cn1)C(=O)O` [free histidine, histidine], in data set [1], the “degradation coefficient (Kd)” value was in the range of 0.000208 to 0.000264 s⁻¹.
In the case of `Cl.N[C@@H](Cc1c[nH]cn1)C(=O)O` [Histidine HCl], in data set [2] (apparent histidine digestibility, His at 0.372% of diet), the “App. His Dig.” value turned out to be 99.3. For the same compound, in data set [2] (true histidine digestibility, His at 0.372% of diet), the “True His. Dig.” value is recorded as 100.2.
As for `Cl.NCCCC[C@H](N)C(=O)O` [Lysine HCL], the “App. Lys. Dig.” value in data set [2] (apparent lysine digestibility, Lys at 0.394% of diet) is on record as 97.3. In addition, the “True Lys Dig.” value in data set [2] (true lysine digestibility, Lys at 0.394% of diet) came out at 99.6.
